According to patent publication US7132563B1, “Convenient method for the preparation of no-carrier-added O-(2-[18F]fluoroethyl)-L-tyrosine)” (Institute of Nuclear Energy Research, priority 2005, dated 2006):
Several values for one entry are separate records, joined by “and”; a condition that tells them apart may be missing. Equal entries are not always repeated.

Legend:
[1] = test system: F98 glioma implanted Fischer 344 rat; assay: PET and microPET imaging of tumor-bearing rat with L-[^18F]FET; assay type: in vivo; settings: 400 μCi via tail vein
Protocol: (1) Positron emission tomography (PET) studies of tumor-bearing rat (Fischer 344) with L-[^18F]FET will be carry out after 11˜12 days of brain tumor (F98 glioma) implantation.
(2) Producing processes of L-[^18F]FET as described above, and estimates its administrating amount of agent according to the level of radioactivity.
(3) At the very beginning, inject 400 μCi of L-[^18F]FET into tail vein. Temporarily anesthetize rats with ether at time of 0.5, 1, 1.5 and 2 hours. Fix rat on transparent acrylic board and place on PET table after securing stretched limbs on the board. Continuously anesthetize rats with isoflurane gas. Align implant portion of head with PET machine as to assure the fixation of original imaging position.
(4) Adjust background value by blank scan before PET imaging.
(5) Use […] radioactive source proceed transmission scan for adjust tissue attenuation.
(6) Commence PET and microPET imaging. Perform image processing after reconstruction of acquired image data; the coronal and cross section scans show in FIGS. 3 and 9. […] In contrast to tumor site, normal tissue have lower radioactivity accumulation of L-[^18F]FET because of lower amino acid requirement.

[2] = test system: F98 glioma cells; assay: L-[^18F]FET uptake by F98 glioma tumor cells; assay type: cell-based, rat; settings: for uptake ratio (radioactivity uptake of cells / total added radioactivity): 10 μCi/well
Protocol: (1) In five six-well plates, put 1×10^6 F98 glioma cells and 2 ml DMEM (1 g glucose/l) into three wells.
(2) Total of five time points (2, 5, 10, 30 minute and 1 hour) in this experiment and each time point use one six-well plate.
(3) Predetermined activity of L-[^18F]FET or [^18F]FDG (10 μCi/well) is added into each well during the experiment. Radioactivity uptake of cells divided by total added radioactivity can obtain its calculated uptake ratio.
F98 glioma cells intake L-[^18F]FET rapidly and maximal accumulation will reach after 10 minutes (uptake ratio 0.47%). As cell cannot metabolize L-[^18F]FET, therefore, the rate of L-[^18F]FET transportation by the cells become balance after ten minutes when add L-[^18F]FET; the accumulation of L-[^18F]FET in glioma cells only slightly decrease after 1 hour (uptake ratio 0.41%).

[3] = test system: F98 glioma implanted Fischer 344 rat; assay: Biological distribution of L-[^18F]FET in F98 glioma-bearing Fischer 344 rat; assay type: in vivo
Protocol: (1) Total of twenty Fischer 344 male rats will be assessed in vivo for L-[^18F]FET biological distribution. Use the intersection of bregma and sagittal midlines as original point; so as to implant F98 glioma cells (1×10^5 cells/10 μl) at the place of 3 mm left 5 mm upward and 5 mm depth. Biological distribution test will be carry out after 11˜12 days of brain tumor implantation.
(2) Different volume of radioactive level is injected, injected volume of L-[^18F]FET for each Fischer 344 rat is 200˜300 μl, that is approximately 200˜250 μCi of activity.
(3) Inject L-[^18F]FET via tail vein, and rats are sacrificed at 15, 30, 60, 90 and 120 minutes.
(4) Dissection of rat organ is right after sacrifice. Scissors off chest and abdomen fur alone the line from genital pore upward to jowl. Next, scissors off chest above xiphisternal transversely. Open ribs aside, take blood sample from venous sinus with 0.5 ml syringe. Withdraw the needle after depletion of blood and collect the extracted heart. Collect the lung lobes with forcep.
(5) Scissors off abdominal muscle from genital pore upward to the position below xiphisternal longitudinally. Then, scissors off the opening of upper and lower edges transversely, everts muscle layers to both sides and expose celiac organs. Search for bladder in lower abdomen and sequentially removes stomach, liver, spleen, small intestine, large intestine, kidney, and muscle.
(6) After turn over the rat, scissors off fur of shoulder and removes exposed subcutaneous tumor. Cut scalp upward at lower margin of cranium above foramen magnum and expose cranial bone. Then, cut cervical portion transversely at foramen magnum and expose spinal cord. Inserts foramen magnum with scissors' tip while attach the inner surface of cranium; such that scissors' tip can reach the frontal edge of cranial cavity in order to scissor off the center of cranium. Use scissors to open cranium aside and expose brain tissue. Alone skull base insert scissors deeply to the front edge of cranial cavity in order to remove left-brain, right-brain and brain tumor.
(7) Weight all organ samples; measure radioactivity with γ-counter and convert to % ID/g (% injection dose/g organ) of each organ for estimate the biological distribution of L-[^18F]FET. […] According to reports, L-[^18F]FET can pass through blood brain barrier (BBB) and enter brain by way of L amino acid transporter system. […] Tumor- to-normal brain ratio of L-[^18F]FET at 15, 30, 60, 90 and 120 minutes are 1.54, 1.74, 3.16, 3.14 and 2.34 respectively. […] Some papers reported that patient with tumor observes no significant accumulation of radioactivity in pancreas when use positron emission tomography (PET), the discrepant results were assumed that human and rat have different metabolic pathway. Furthermore, biological distribution study of L-[^18F]FET indicated radioactivity accumulation in tumor cells (expressed by % ID/g) are much higher than other normal organs (left-brain, small intestine, kidney, liver, blood and muscle) except pancreas, this means L-[^18F]FET can be a potential PET agent for substantially different site of tumor.

[4] = 15 min after tail vein injection, tumor-bearing rat
[5] = 30 min after tail vein injection, tumor-bearing rat
[6] = 60 min after tail vein injection, tumor-bearing rat
[7] = 90 min after tail vein injection, tumor-bearing rat
[8] = 120 min after tail vein injection, tumor-bearing rat

SMILES: N[C@@H](Cc1ccc(OCC[18F])cc1)C(=O)O [L-[^18F]FET, O-(2-[^18F]fluoroethyl)-L-Tyrosine]
- radioactivity accumulation in brain tumor on PET imaging ([1]; F98 glioma Fischer 344 rat): significant radioactivity accumulation in brain tumor
- time of maximum uptake in brain tumor on PET imaging ([1]; imaging at 0.5, 1, 1.5 and 2 hours): 90 min
- time to maximal accumulation in cells [2]: 10 min
- uptake ratio (radioactivity uptake of cells / total added radioactivity) ([2]; after 10 minutes (maximal accumulation)): 0.47%
- uptake ratio (radioactivity uptake of cells / total added radioactivity) ([2]; after 1 hour): 0.41%
- accumulated radioactivity in Blood [3, 4]: 0.41 ± 0.03 % ID/g
- accumulated radioactivity in Heart [3, 4]: 0.30 ± 0.06 % ID/g
- accumulated radioactivity in Kidney [3, 4]: 0.33 ± 0.01 % ID/g
- accumulated radioactivity in Large intestine [3, 4]: 0.21 ± 0.01 % ID/g
- accumulated radioactivity in Left brain [3, 4]: 0.08 ± 0.01 % ID/g
- accumulated radioactivity in Liver [3, 4]: 0.27 ± 0.06 % ID/g
- accumulated radioactivity in Lung [3, 4]: 0.32 ± 0.05 % ID/g
- accumulated radioactivity in Muscle [3, 4]: 0.19 ± 0.03 % ID/g
- accumulated radioactivity in Pancreas [3, 4]: 0.98 % ID/g and 0.98 ± 0.25 % ID/g
- accumulated radioactivity in Right brain [3, 4]: 0.07 ± 0.02 % ID/g
- accumulated radioactivity in Small intestine [3, 4]: 0.23 ± 0.11 % ID/g
- accumulated radioactivity in Spleen [3, 4]: 0.31 ± 0.08 % ID/g
- accumulated radioactivity in Stomach [3, 4]: 0.24 ± 0.05 % ID/g
- accumulated radioactivity in Tumor [3, 4]: 0.12 ± 0.02 % ID/g
- Tumor-to-normal brain ratio ([3]; 15 minutes after injection): 1.54
- accumulated radioactivity in Blood [3, 5]: 0.39 ± 0.03 % ID/g
- accumulated radioactivity in Heart [3, 5]: 0.40 ± 0.07 % ID/g
- accumulated radioactivity in Kidney [3, 5]: 0.34 ± 0.06 % ID/g
- accumulated radioactivity in Large intestine [3, 5]: 0.28 ± 0.05 % ID/g
- accumulated radioactivity in Left brain [3, 5]: 0.25 ± 0.05 % ID/g
- accumulated radioactivity in Liver [3, 5]: 0.37 ± 0.07 % ID/g
- accumulated radioactivity in Lung [3, 5]: 0.43 ± 0.09 % ID/g
- accumulated radioactivity in Muscle [3, 5]: 0.28 ± 0.01 % ID/g
- accumulated radioactivity in Pancreas [3, 5]: 1.76 % ID/g and 1.76 ± 0.16 % ID/g
- accumulated radioactivity in Right brain [3, 5]: 0.21 ± 0.03 % ID/g
- accumulated radioactivity in Small intestine [3, 5]: 0.52 ± 0.26 % ID/g
- accumulated radioactivity in Spleen [3, 5]: 0.50 ± 0.11 % ID/g
- accumulated radioactivity in Stomach [3, 5]: 0.36 ± 0.06 % ID/g
- accumulated radioactivity in Tumor [3, 5]: 0.43 ± 0.10 % ID/g
- Tumor-to-normal brain ratio ([3]; 30 minutes after injection): 1.74
- accumulated radioactivity in Blood [3, 6]: 0.38 ± 0.00 % ID/g
- accumulated radioactivity in Heart [3, 6]: 0.43 ± 0.07 % ID/g
- accumulated radioactivity in Kidney [3, 6]: 0.41 ± 0.08 % ID/g
- accumulated radioactivity in Large intestine [3, 6]: 0.42 ± 0.06 % ID/g
- accumulated radioactivity in Left brain [3, 6]: 0.40 ± 0.06 % ID/g
- accumulated radioactivity in Liver [3, 6]: 0.41 ± 0.06 % ID/g
- accumulated radioactivity in Lung [3, 6]: 0.43 ± 0.07 % ID/g
- accumulated radioactivity in Muscle [3, 6]: 0.36 ± 0.04 % ID/g
- accumulated radioactivity in Pancreas [3, 6]: 2.55 % ID/g and 2.55 ± 0.31 % ID/g
- accumulated radioactivity in Right brain [3, 6]: 0.34 ± 0.03 % ID/g
- accumulated radioactivity in Small intestine [3, 6]: 0.65 ± 0.04 % ID/g
- accumulated radioactivity in Spleen [3, 6]: 0.51 ± 0.09 % ID/g
- accumulated radioactivity in Stomach [3, 6]: 0.40 ± 0.05 % ID/g
- accumulated radioactivity in Tumor [3, 6]: 1.26 ± 0.22 % ID/g
- Tumor-to-normal brain ratio ([3]; 60 minutes after injection): 3.16
- accumulated radioactivity in Blood [3, 7]: 0.37 ± 0.03 % ID/g
- accumulated radioactivity in Heart [3, 7]: 0.47 ± 0.02 % ID/g
- accumulated radioactivity in Kidney [3, 7]: 0.42 ± 0.07 % ID/g
- accumulated radioactivity in Large intestine [3, 7]: 0.46 ± 0.04 % ID/g
- accumulated radioactivity in Left brain [3, 7]: 0.48 ± 0.14 % ID/g
- accumulated radioactivity in Liver [3, 7]: 0.49 ± 0.01 % ID/g
- accumulated radioactivity in Lung [3, 7]: 0.45 ± 0.02 % ID/g
- accumulated radioactivity in Muscle [3, 7]: 0.44 ± 0.10 % ID/g
- accumulated radioactivity in Pancreas [3, 7]: 2.28 % ID/g and 2.28 ± 0.76 % ID/g
- accumulated radioactivity in Right brain [3, 7]: 0.48 ± 0.08 % ID/g
- accumulated radioactivity in Small intestine [3, 7]: 0.43 ± 0.11 % ID/g
- accumulated radioactivity in Spleen [3, 7]: 0.48 ± 0.11 % ID/g
- accumulated radioactivity in Stomach [3, 7]: 0.43 ± 0.04 % ID/g
- accumulated radioactivity in Tumor [3, 7]: 1.49 % ID/g and 1.49 ± 0.40 % ID/g
- Tumor-to-normal brain ratio ([3]; 90 minutes after injection): 3.14
- maximum accumulation in normal brain tissue ([3]; 90 minutes after injection, tumor-bearing rat): 0.48 % ID/g
- accumulated radioactivity in Blood [3, 8]: 0.36 ± 0.03 % ID/g
- accumulated radioactivity in Heart [3, 8]: 0.43 ± 0.07 % ID/g
- accumulated radioactivity in Kidney [3, 8]: 0.41 ± 0.09 % ID/g
- accumulated radioactivity in Large intestine [3, 8]: 0.38 ± 0.09 % ID/g
- accumulated radioactivity in Left brain [3, 8]: 0.43 ± 0.09 % ID/g
- accumulated radioactivity in Liver [3, 8]: 0.41 ± 0.09 % ID/g
- accumulated radioactivity in Lung [3, 8]: 0.40 ± 0.06 % ID/g
- accumulated radioactivity in Muscle [3, 8]: 0.37 ± 0.10 % ID/g
- accumulated radioactivity in Pancreas [3, 8]: 2.24 % ID/g and 2.24 ± 0.72 % ID/g
- accumulated radioactivity in Right brain [3, 8]: 0.34 ± 0.04 % ID/g
- accumulated radioactivity in Small intestine [3, 8]: 0.41 ± 0.09 % ID/g
- accumulated radioactivity in Spleen [3, 8]: 0.47 ± 0.04 % ID/g
- accumulated radioactivity in Stomach [3, 8]: 0.41 ± 0.03 % ID/g
- accumulated radioactivity in Tumor [3, 8]: 1.02 ± 0.16 % ID/g
- Tumor-to-normal brain ratio ([3]; 120 minutes after injection): 2.34
- time of maximum accumulation in brain tumor and normal brain tissue ([3]; biological distribution, tumor-bearing rat): 90 min
- radioactivity in urine sample (excretion via urine) ([3]; tumor-bearing rat): high level of radioactivity
